Source: patent publication US5276023A, “19-nor-steroid esters” (Roussel Uclaf, priority 1989, dated 1994)

Tests used:
Glucocorticoid receptor = biological target: T1, Glucocorticoid receptor (Rattus norvegicus, UniProt P06536); assay: relative bond affinity for the glucocorticoid receptor of rat's thymus; assay type: binding; details: tritiated dexamethasone 2.5 nM, RBA=100 (CH)/(CX), reference cold dexamethasone; for relative bond affinity (RBA), Glucocorticoid 4H: 4 hours incubation at 0° C.; for relative bond affinity (RBA), Glucocorticoid 24H: 24 hours incubation at 0° C.
T1 construct: The thymuses were removed and homogenized; from tissue; host or cells: thymus cytosol (105,000 g supernatant) of suprarenalectomized male rats
T1 sequence (P06536 1-795): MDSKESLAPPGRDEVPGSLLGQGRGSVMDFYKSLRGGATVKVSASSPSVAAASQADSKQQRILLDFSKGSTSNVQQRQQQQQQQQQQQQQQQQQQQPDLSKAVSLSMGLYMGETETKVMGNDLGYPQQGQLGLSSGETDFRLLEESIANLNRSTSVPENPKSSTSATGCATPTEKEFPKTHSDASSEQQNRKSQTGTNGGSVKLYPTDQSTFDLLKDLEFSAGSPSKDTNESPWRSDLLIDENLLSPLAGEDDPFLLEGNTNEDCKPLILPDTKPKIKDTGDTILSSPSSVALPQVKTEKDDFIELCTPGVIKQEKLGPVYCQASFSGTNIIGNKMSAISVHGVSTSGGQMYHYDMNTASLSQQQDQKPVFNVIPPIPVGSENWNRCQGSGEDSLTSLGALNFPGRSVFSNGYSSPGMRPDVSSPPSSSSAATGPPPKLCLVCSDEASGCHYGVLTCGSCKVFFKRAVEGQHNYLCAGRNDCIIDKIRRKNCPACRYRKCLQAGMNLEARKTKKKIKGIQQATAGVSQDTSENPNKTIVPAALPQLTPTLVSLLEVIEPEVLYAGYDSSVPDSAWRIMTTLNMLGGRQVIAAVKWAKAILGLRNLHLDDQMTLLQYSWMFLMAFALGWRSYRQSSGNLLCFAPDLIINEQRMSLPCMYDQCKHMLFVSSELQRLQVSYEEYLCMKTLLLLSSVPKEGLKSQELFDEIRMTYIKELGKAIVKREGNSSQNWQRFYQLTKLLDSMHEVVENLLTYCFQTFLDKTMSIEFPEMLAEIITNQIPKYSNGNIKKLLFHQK
Protocol: (§1) 1) Measurement of the relative bond affinity for the receptors of steroid hormones:
Glucocorticoid receptor of rat's thymus:
Male rats weighing 160 to 200 g were suprarenalectomized and 4 to 8 days after this removal, the animals were killed. The thymuses were removed and homogenized at 0° C. using a Potter teflon-flask in a (TSD) 10 Mm Tris, 0.25M saccharose, 2 mM dithiothreitol, HCl pH 7.4 buffer (1 g of tissue per 10 ml of TSD). The homogenate was then ultracentrifuged at 105,000 g×90 mn at 0° C. Aliquots of the supernatant "cytosol", were incubated at 0° C. for 4 hours and 24 hours with a constant concentration (T=2.5 nM) of tritiated dexamethasone in the presence of increasing concentrations (0-2,500 nM) of cold dexamethasone or of the cold product under test. The concentration of the bonded tritiated dexamethasone (B) was then measured in each incubate by the technique of adsorption with carbon-dextran.
(§2) Calculation of the relative bond affinity:
(§3) The calculation of the relative bond affinity (RBA) was identical for all receptors. The following two curves were drawn: the percentage of bonded tritiated hormone B/T as a function of the logarithm of the concentration of the cold reference hormone and B/T as a function of the logarithm of the concentration of the cold product under test. The straight line of the equation:
(§4) B max=Percentage of bonded tritiated hormone for an incubation of this tritiated hormone at the concentration (T).
(§5) B min=Percentage of bonded tritiated hormone for an incubation of this tritiated hormone at the concentration (T) in the presence of a great excess of cold hormone (2500×10^-9 M).
(§6) The intersections of the straight line I50 and the curves allowed the evaluation of the concentrations of the cold reference hormone (CH) and of the cold product under test (CX) which inhibited by 50% the bonding of the tritiated hormone on the receptor. The relative bond affinity (RBA) of the product under test was determined by the equation RBA=100 (CH)/(CX)

Progesterone receptor = biological target: T2, Progesterone receptor (Oryctolagus cuniculus, UniProt P06186); assay: relative bond affinity for the progesterone receptor of rabbit's uterus; assay type: binding; details: for relative bond affinity (RBA), Progesterone 2H: 2 hours incubation at 0° C.; for relative bond affinity (RBA), Progesterone 2H / relative bond affinity (RBA), Progesterone 24H: tritiated R 5020 5 nM, RBA=100 (CH)/(CX), reference cold progesterone; for relative bond affinity (RBA), Progesterone 24H: 24 hours incubation at 0° C.; for antiprogesterone activity: conclusion in words from the receptor binding study
T2 construct: from tissue; host or cells: uterus cytosol (105,000 g supernatant) of impuberal female rabbits treated with estradiol
T2 sequence (P06186 1-930): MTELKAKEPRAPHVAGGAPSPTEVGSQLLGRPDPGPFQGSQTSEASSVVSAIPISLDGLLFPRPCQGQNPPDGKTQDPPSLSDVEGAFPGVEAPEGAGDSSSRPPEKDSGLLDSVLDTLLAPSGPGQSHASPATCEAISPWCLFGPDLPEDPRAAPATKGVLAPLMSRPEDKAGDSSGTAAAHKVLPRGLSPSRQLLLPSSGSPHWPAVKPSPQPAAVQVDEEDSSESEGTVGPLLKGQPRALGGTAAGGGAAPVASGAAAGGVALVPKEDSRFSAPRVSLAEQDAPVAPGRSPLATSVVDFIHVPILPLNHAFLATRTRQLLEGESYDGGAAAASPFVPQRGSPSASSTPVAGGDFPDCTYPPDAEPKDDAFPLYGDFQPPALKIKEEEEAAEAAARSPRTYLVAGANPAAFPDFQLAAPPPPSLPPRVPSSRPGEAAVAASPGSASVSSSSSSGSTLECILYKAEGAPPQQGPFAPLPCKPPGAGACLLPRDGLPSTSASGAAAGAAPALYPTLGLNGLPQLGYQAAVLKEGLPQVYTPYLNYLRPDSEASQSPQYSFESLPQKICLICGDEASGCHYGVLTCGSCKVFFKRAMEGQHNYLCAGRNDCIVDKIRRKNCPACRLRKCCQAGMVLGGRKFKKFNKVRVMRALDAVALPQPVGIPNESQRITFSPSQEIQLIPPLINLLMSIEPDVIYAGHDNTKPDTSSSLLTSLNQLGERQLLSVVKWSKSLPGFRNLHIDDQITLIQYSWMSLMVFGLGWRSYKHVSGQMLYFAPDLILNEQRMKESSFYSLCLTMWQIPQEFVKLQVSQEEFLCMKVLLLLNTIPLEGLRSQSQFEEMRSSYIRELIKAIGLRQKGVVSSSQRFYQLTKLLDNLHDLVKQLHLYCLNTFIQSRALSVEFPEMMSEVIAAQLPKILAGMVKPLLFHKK
Protocol: as §1
Progesterone receptor of rabbit's uterus:
Impuberal female rabbits weighing about 1 kg received a cutaneous application of 25 ug of estradiol and five days after this treatment, the animals were killed and the uteruses were removed, weighed and homogenized at 0° C. using a Potter teflon-flask in a (TS) 10 mM Tris, 0.25M saccharose, HCl pH 7.4 buffer (1 g of tissue per 50 ml of TS). The homogenate was then ultra-centrifuged (105,000 g×90 mn) at 0° C. […] The concentration of bonded tritiated R 5020 (B) was then measured in each incubate by the technique of adsorption with carbon-dextran.
as §2, §3, §4, §5, §6

| Compound | relative bond affinity (RBA), Glucocorticoid 4H (Glucocorticoid receptor) | relative bond affinity (RBA), Glucocorticoid 24H (Glucocorticoid receptor) | relative bond affinity (RBA), Progesterone 2H (Progesterone receptor) | relative bond affinity (RBA), Progesterone 24H (Progesterone receptor) | relative bond affinity (RBA), Glucocorticoid 4H (Glucocorticoid receptor; listed as EX. 5) | relative bond affinity (RBA), Glucocorticoid 24H (Glucocorticoid receptor; listed as EX. 5) | relative bond affinity (RBA), Progesterone 24H (Progesterone receptor; listed as EX. 5) | relative bond affinity (RBA), Glucocorticoid 4H (Glucocorticoid receptor; listed as EX. 6) | relative bond affinity (RBA), Glucocorticoid 24H (Glucocorticoid receptor; listed as EX. 6) | relative bond affinity (RBA), Progesterone 24H (Progesterone receptor; listed as EX. 6) | antiprogesterone activity (Progesterone receptor) |
| --- | --- | --- | --- | --- | --- | --- | --- | --- | --- | --- | --- |
| CN(C)c1ccc([C@H]2C[C@@]3(C)[C@@H](CC[C@@]3(O)/C=C\COC(=O)CCC(=O)O)[C@@H]3CCC4=CC(=O)CCC4=C32)cc1 [Example 2, Sodium (Z)-3-[11β-[4-dimethylamino-phenyl]-Δ^4,9-estradien-17β-ol-3-one-17α-yl]-2-propenyl succinate] | 62 | 48 | 21 | 88 |  |  |  |  |  |  |  |
| CN(C)c1ccc([C@H]2C[C@@]3(C)[C@@H](CC[C@@]3(O)C#CCOC(=O)CCC(=O)O)[C@@H]3CCC4=CC(=O)CCC4=C32)cc1 [Example 4, Sodium and 3-[11β-[4-dimethylamino-phenyl]-Δ^4,9-estradien-17β-ol-3-one-17α-yl]-2-propynyl succinate] | 31,5 | 27 | 14 | 26 |  |  |  |  |  |  |  |
| CC#C[C@]1(OC(=O)CCC(=O)O)CC[C@H]2[C@@H]3CCC4=CC(=O)CCC4=C3[C@@H](c3ccc(N(C)C)cc3)C[C@@]21C [Example 5, 11β-[4-dimethylamino-phenyl]-17-(1-propynyl)-Δ^4,9-estradien-3-one-17β-yl acid succinate] |  |  | 2 |  | 28 | 77 | 8 |  |  |  |  |
| CC#C[C@]1(OC(=O)CCC(=O)O)CC[C@H]2[C@@H]3CCC4=CC(=O)CCC4=C3[C@@H](c3ccc(N(C)C)cc3)C[C@@]21C [Example 6, Sodium 11β-[4-dimethylamino-phenyl]17α-(1-propynyl)-Δ^4,9 - estradien-3-one-17β-yl succinate] |  |  | 2 |  |  |  |  | 26 | 54 | 6 |  |
| CN(C)c1ccc([C@H]2C[C@@]3(C)[C@@H](CC[C@]3(C#CCl)OC(=O)CCC(=O)O)[C@@H]3CCC4=CC(=O)CCC4=C32)cc1 [Example 10, Sodium and 21-chloro-11β-[4-dimethylamino-phenyl]-19-nor-17α-Δ^4,9-pregnadien-3-one-20-yn-17β-yl succinate] | 37 | 77 | 3 | 13 |  |  |  |  |  |  | good |
| CC#C[C@]1(OC(=O)CCC(=O)O)CC[C@H]2[C@@H]3CCC4=CC(=O)CCC4=C3[C@@H](c3ccc(SC)cc3)C[C@@]21C [Example 12, Sodium and 11β-[4-methylthio-phenyl]-17α-(1-propynyl)-Δ^4,9 estradien-3-one-17β-yl succinate] | 9,5 | 24 | 1,2 | 3,6 |  |  |  |  |  |  | good |
